We go through five compounds from PubChem BioAssay AID2060600 (Molecular Pharmacology Branch, DTP, NCI, 2025).

The test has as its system 996289-038-R-J1-PDC complex spheroid viability. The experiment in a line: Anticancer human tumor 996289-038-R-J1-PDC patient-derived colon adenocarcinoma cell line growth inhibition [CLK]. To be noted: for viability, T/C: stronger effect = lower value. A digest of the protocol: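 Patient-derived tumor cells grown as complex spheroids with HUVEC endothelial cells and mesenchymal stem cells, treated with drug combinations. Concentrations descend in half-log steps from near clinical Cmax, or from 10 microM if Cmax unknown.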

The mark [1] stands for this setting: curve of first compound, second compound 0.0316 µM.
Setting [2] is: curve of first compound, second compound 0.1 µM.
Setting [3] is: curve of first compound, second compound 0.316 µM.
[4] abbreviates: curve of first compound, second compound 1 µM.
The mark [5] stands for this setting: curve of first compound, second compound 3.16 µM.
Setting [6] is: curve of first compound, second compound 10 µM.
Setting [7] is: second compound 0.0316 µM, first compound 0.0316 µM.
[8] abbreviates: second compound 0.0316 µM, first compound 0.1 µM.
Where [9] appears, read: second compound 0.0316 µM, first compound 0.316 µM.
[10] abbreviates: second compound 0.0316 µM, first compound 1 µM.
Setting [11] is: second compound 0.0316 µM, first compound 3.16 µM.
Where [12] appears, read: second compound 0.0316 µM, first compound 10 µM.
The mark [13] stands for this setting: second compound 0.1 µM, first compound 0.0316 µM.
[14] abbreviates: second compound 0.1 µM, first compound 0.1 µM.
The mark [15] stands for this setting: second compound 0.1 µM, first compound 0.316 µM.
[16] abbreviates: second compound 0.1 µM, first compound 1 µM.
[17] abbreviates: second compound 0.1 µM, first compound 3.16 µM.
[18] abbreviates: second compound 0.1 µM, first compound 10 µM.
Where [19] appears, read: second compound 0.316 µM, first compound 0.0316 µM.
Where [20] appears, read: second compound 0.316 µM, first compound 0.1 µM.
Setting [21] is: second compound 0.316 µM, first compound 0.316 µM.
The mark [22] stands for this setting: second compound 0.316 µM, first compound 1 µM.
The mark [23] stands for this setting: second compound 0.316 µM, first compound 3.16 µM.
Where [24] appears, read: second compound 0.316 µM, first compound 10 µM.
Setting [25] is: second compound 1 µM, first compound 0.0316 µM.
The mark [26] stands for this setting: second compound 1 µM, first compound 0.1 µM.
Setting [27] is: second compound 1 µM, first compound 0.316 µM.
The mark [28] stands for this setting: second compound 1 µM, first compound 1 µM.
Where [29] appears, read: second compound 1 µM, first compound 3.16 µM.
The mark [30] stands for this setting: second compound 1 µM, first compound 10 µM.
[31] abbreviates: second compound 3.16 µM, first compound 0.0316 µM.
Where [32] appears, read: second compound 3.16 µM, first compound 0.1 µM.
The mark [33] stands for this setting: second compound 3.16 µM, first compound 0.316 µM.
Where [34] appears, read: second compound 3.16 µM, first compound 1 µM.
[35] abbreviates: second compound 3.16 µM, first compound 3.16 µM.
Where [36] appears, read: second compound 3.16 µM, first compound 10 µM.
Where [37] appears, read: second compound 10 µM, first compound 0.0316 µM.
The mark [38] stands for this setting: second compound 10 µM, first compound 0.1 µM.
The mark [39] stands for this setting: second compound 10 µM, first compound 0.316 µM.
Setting [40] is: second compound 10 µM, first compound 1 µM.
The mark [41] stands for this setting: second compound 10 µM, first compound 3.16 µM.
Where [42] appears, read: second compound 10 µM, first compound 10 µM.

Several values for one entry are separate records, joined by “and”; a condition that tells them apart may be missing. Equal values may be shown once.
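Also: spheroids exposed to the agents for 7 days before readout.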

`CC(=O)O[C@H]1C(=O)[C@@]2(C)[C@H]([C@H](OC(=O)c3ccccc3)[C@]3(O)C[C@H](OC(=O)[C@H](O)[C@@H](NC(=O)c4ccccc4)c4ccccc4)C(C)=C1C3(C)C)[C@]1(OC(C)=O)CO[C@@H]1C[C@@H]2O` + CN1CCN(c2cc(C(=O)Nc3cc4cc(-c5cnn(C)c5)ccc4cn3)ccn2)CC1: the IC50 runs as follows: under setting [1], > 10000 nM; under setting [2], 947 nM; under setting [3], 50.7 nM; under setting [4], < 31.6 nM; under setting [5], < 31.6 nM; under setting [6], < 31.6 nM. The viability, T/C by setting is: under setting [7], 94%; under setting [8], 80.4%; under setting [9], 64.1%; under setting [10], 57.5%; under setting [11], 54.8%; under setting [12], 54.5%. Further, the viability, T/C is, setting by setting: under setting [13], 83.2%; under setting [14], 77.6%; under setting [15], 58.6%; under setting [16], 50%; under setting [17], 48.1%; under setting [18], 48.2%. Besides, the viability, T/C is, setting by setting: under setting [19], 52.1%; under setting [20], 49.1%; under setting [21], 39.1%; under setting [22], 34.2%; under setting [23], 36.9%; under setting [24], 38.3%. Besides, the viability, T/C reads like this: under setting [25], 2.95%; under setting [26], 3.46%; under setting [27], 2.81%; under setting [28], 5.29%; under setting [29], 3.96%; under setting [30], 3.89%. The viability, T/C is, setting by setting: under setting [31], 2.65%; under setting [32], 0.84%; under setting [33], 1.67%; under setting [34], 2.13%; under setting [35], 1.35%; under setting [36], 0.72%. Besides, the viability, T/C was 1.84% under setting [37]; 1.49% under setting [38]; 0.61% under setting [39]; 0.57% under setting [40]; 0.83% under setting [41]; 2.14% under setting [42].

`CC1COCCN1c1cc(C2(S(C)(=N)=O)CC2)nc(-c2ccnc3[nH]ccc23)n1` (stereo not given): the viability, T/C is, setting by setting: (compound 0.0316 µM) 103% and 102%; (compound 0.1 µM) 97.6% and 89.7%; (compound 0.316 µM) 96.9% and 106%; (compound 1 µM) 97.9% and 102%; (compound 3.16 µM) 97.8% and 101%; (compound 10 µM) 84.4% and 81.6%. In addition, where the note is “curve of compound”, the IC50 was > 10000 nM.

Regarding `CCCS(=O)(=O)Nc1ccc(F)c(C(=O)c2c[nH]c3ncc(-c4ccc(Cl)cc4)cc23)c1F` + CN1CCN(c2cc(C(=O)Nc3cc4cc(-c5cnn(C)c5)ccc4cn3)ccn2)CC1, the IC50 is, setting by setting: under setting [1], > 10000 nM; under setting [2], > 10000 nM; under setting [3], 6170 nM; under setting [4], < 31.6 nM; under setting [5], < 31.6 nM; under setting [6], < 31.6 nM. Besides, the viability, T/C is 92.3% under setting [7]; 87.7% under setting [8]; 95% under setting [9]; 98% under setting [10]; 98.6% under setting [11]; 68.1% under setting [12]. Also, the viability, T/C under setting [13] is 94.2%; the viability, T/C under setting [14] was 82%; the viability, T/C under setting [15] is 90.1%; the viability, T/C under setting [16] is 92%; the viability, T/C under setting [17] is 81.3%; the viability, T/C under setting [18] was 57.3%. Further, the viability, T/C is, setting by setting: under setting [19], 67.4%; under setting [20], 70.3%; under setting [21], 70.9%; under setting [22], 76.6%; under setting [23], 65.7%; under setting [24], 37.9%. For the same compound, the viability, T/C under setting [25] is 5.57%; the viability, T/C under setting [26] was 6.02%; the viability, T/C under setting [27] was 6.22%; the viability, T/C under setting [28] is 7.67%; the viability, T/C under setting [29] is 5.81%; the viability, T/C under setting [30] is 5.48%. The viability, T/C by setting is: under setting [31], 1.49%; under setting [32], 1.01%; under setting [33], 1.22%; under setting [34], 1.3%; under setting [35], 2.36%; under setting [36], 1.6%. Moreover, the viability, T/C under setting [37] is 1.91%; the viability, T/C under setting [38] is 0.63%; the viability, T/C under setting [39] was 1.71%; the viability, T/C under setting [40] was 0.77%; the viability, T/C under setting [41] is 1.81%; the viability, T/C under setting [42] is 0.48%.

For `O=c1[nH]cc(F)c(=O)[nH]1`, the viability, T/C by setting is: (compound 0.0316 µM) 99.2% and 101%; (compound 0.1 µM) 83.9% and 82.2%; (compound 0.316 µM) 83.3% and 88.9%; (compound 1 µM) 79.7% and 78.6%; (compound 3.16 µM) 77.9% and 85.8%; (compound 10 µM) 73.3% and 74.8%. Also, for the setting “curve of compound”, the IC50 is > 10000 nM.

For the compound `CC(C)CC(NC(=O)C(Cc1ccccc1)NC(=O)c1cnccn1)B(O)O` (stereo not given), the viability, T/C is, setting by setting: (compound 0.000949 µM) 98.5% and 113%; (compound 0.003 µM) 78.9% and 56.8%; (compound 0.00949 µM) 9.23% and 6.16%; (compound 0.03 µM) 0.73% and 1.24%; (compound 0.0949 µM) 0.59% and 0.71%; (compound 0.3 µM) 0.55% and 1.04%. Also, under “curve of compound”, the IC50 was 4.84 nM and 3.5 nM.

For orientation: IC50 means the concentration at which inhibition is half-maximal. As usually defined, the viability, T/C is the ratio of treated to control.
